Data: patent publication US20210108191A1, “Methods of Production of Biologically Active Lasso Peptides” (The Board of Trustees of the University of Illinois, priority 2017, published 2021)
Bridges are numbered along the chain shown (N, C = ends). Where no end group is shown, it is not given here.

System: several pathogenic bacteria
Assay: activity against pathogenic bacteria
Type: cell-based
Source text: RODEO can be used to assist in identifying lasso peptide gene clusters (FIG. 2). […] Several new lasso peptides have been characterized. (FIG. 3B-C). […] RODEO provides a roadmap for the discovery of new RiPPs and lasso peptide biosynthetic enzymology.

LP2006: rare disulfide-containing, class IV lasso peptide (SEQ ID NO:6) from Nocardiopsis alba (GRPNWGFENDWSCVRVC; disulfide 13-17 (inferred); also: lasso topology, ring places not given here)
activity against pathogenic bacteria: active against several pathogenic bacteria
